The text below walks through data of patent EP4818178A1, “PREPARATION AND USE OF PYRIMIDOTHIOPYRANONE KRAS MUTANT PROTEIN INHIBITOR” (Ya Therapeutics Inc, priority 2024, dated 2025).

For one experiment, the target named is KRasG12D (Homo sapiens, UniProt P01116, G12D). The experiment can be described thus: KRAS inhibitory activity test, TR-FRET (inhibition of binding of KRasG12D to GTP, SOS/GTP nucleotide exchange). The class given is biochemical. The settings on record: read-out: IC50 values of the compounds for inhibiting KRAS enzymes, G12D. The method, boiled down:
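KRasG12D preloaded with Bodipy-GDP plus Tb-streptavidin (3 nM Kras/0.5 nM Tb-SA/30 nM Bodipy-GDP) incubated 1 h at rt with compound (10-point 3-fold series). SOS/GTP mixture then added for 1 h at rt. TR-FRET signal read; IC50 calculated.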
On the technique in general: TR-FRET usually uses a lanthanide donor and a delayed reading to cut background.

In experiment [1] the test system is p-ERK in A549 (G12S) cells. The experiment can be described thus: Cellular p-ERK inhibition assay (HTRF). Format: cell-based. The settings on record: 1 hour with compound. The procedure: (§1) Cells were seeded in clear 96-well cell culture plates, with 80 µL of cell suspension per well, containing 8000 cells per well. The plates were incubated overnight at 37°C using a CO2 incubator. 2 µL of the compound was added to 78 µL of cell culture medium, mixed well, and then 20 µL of the compound solution was added to the corresponding wells of the cell culture plate. The plates were returned to the CO2 incubator for another hour. After incubation, the cell supernatant was discarded, and 50 µL of the […] was added to the cell culture plate. Add 1X cell lysis buffer to each well and incubate at room temperature with shaking for 30 minutes. Dilute Phospho-ERK1/2 Eu Cryptate antibody and Phospho-ERK1/2 d2 antibody 20-fold using detection buffer. Transfer 16 µL of cell lysis supernatant to each well in a new 384 white microplate, then add 2 µL of Phospho-ERK1/2 Eu Cryptate antibody diluent and 2 µL of Phospho-ERK1/2 d2 antibody diluent. Incubate at room temperature for at least 4 hours. After incubation, read the HTRF excitation (320 nm) and emission (615 nm, 665 nm) using a multilabel analyzer. Calculate the IC50 of the analyte. "++++" indicates IC50≤ 10 nM; "+++" indicates 10 nM < IC50≤ 100 nM; "++" indicates 100 nM < IC50≤ 2000 nM; "+" indicates 2000 nM < IC50. Table 2. IC50 (nM) of the compounds on the inhibition of p-ERK in tumor cells.

Experiment [2] concerns p-ERK in AsPC-1 (G12D) cells. In words: Cellular p-ERK inhibition assay (HTRF). As to conditions: Homo sapiens, ASPC1, 1 hour with compound, read-out: IC50 (nM) of the compounds on the inhibition of p-ERK in tumor cells, AsPC-1. The class given is cell-based. The procedure:
as §1

In experiment [3] the test system is p-ERK in HCT116 (G13D) cells. The experiment can be described thus: Cellular p-ERK inhibition assay (HTRF). The class given is cell-based. The settings on record: Homo sapiens, HCT-116, 1 hour with compound, read-out: IC50 (nM) of the compounds on the inhibition of p-ERK in tumor cells, HCT11 6. As for the experimental part: as §1
Experiment [4] has as its system p-ERK in MKN1 (WTdep) cells. The experiment can be described thus: Cellular p-ERK inhibition assay (HTRF). Format: cell-based. The settings on record: Homo sapiens, MKN-1, 1 hour with compound, read-out: IC50 (nM) of the compounds on the inhibition of p-ERK in tumor cells, MKN 1. The procedure:
as §1

Experiment [5] relates to p-ERK in NCI-H358 (G12C) cells. The experiment can be described thus: Cellular p-ERK inhibition assay (HTRF). The class given is cell-based. The settings on record: Homo sapiens, 1 hour with compound, read-out: IC50 (nM) of the compounds on the inhibition of p-ERK in tumor cells, NCI-H35 8. As for the experimental part:
as §1

In experiment [6] the test system is p-ERK in NCI-H460 (Q61H) cells. In words: Cellular p-ERK inhibition assay (HTRF). Format: cell-based. The settings on record: Homo sapiens, 1 hour with compound, read-out: IC50 (nM) of the compounds on the inhibition of p-ERK in tumor cells, NCI-H46 0. As for the experimental part:
as §1

The subject of experiment [7] is p-ERK in NCI-H727 (G12V) cells. In words: Cellular p-ERK inhibition assay (HTRF). The class given is cell-based. As to conditions: Homo sapiens, 1 hour with compound, read-out: IC50 (nM) of the compounds on the inhibition of p-ERK in tumor cells, NCI-H72 7. As for the experimental part:
as §1

The subject of experiment [8] is p-ERK in PSN-1 (G12R) cells. The experiment can be described thus: Cellular p-ERK inhibition assay (HTRF). As to conditions: Homo sapiens, PSN1, 1 hour with compound, read-out: IC50 (nM) of the compounds on the inhibition of p-ERK in tumor cells, PSN-1. Format: cell-based. The procedure: as §1

Where only a bound is given, the exact number is not on record here.

KRasG12D, sequence (P01116 1-188 isoform P01116-2 G12D): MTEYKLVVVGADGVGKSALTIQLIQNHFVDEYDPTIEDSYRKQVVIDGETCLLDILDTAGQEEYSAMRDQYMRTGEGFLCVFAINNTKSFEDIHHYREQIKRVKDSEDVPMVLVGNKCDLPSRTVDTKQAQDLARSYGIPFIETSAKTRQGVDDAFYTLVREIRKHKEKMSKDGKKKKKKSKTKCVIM

Consider `Cc1cc(O)c(F)c(C2Cc3nc(OC[C@@]45CCCN4C[C@H](F)C5)nc(N4CCC[C@@](C)(O)C4)c3CS2(=O)=O)c1C(F)(F)F` (stereo partly drawn) [Compound 6, 7-(2-fluoro-3-hydroxy-5-methyl-6-(trifluoromethyl)phenyl)-2-(((2R,7AS)-2-fluorotetrahydro-1H-pyrrolazin-7a(5H)-yl)methoxy)-4-((R)-3-hydroxy-3-methylpiperidin-1-yl)-7,8-dihydro-5H-thiopyrano[4,3-d]pyrimidine 6,6-dioxide], for which the IC50 (on KRasG12D; in [2]; in experiment [3]; in experiment [4]; in experiment [5]; in [6]) was no more than 10 nM each time. Also, the IC50 (as a rule, the concentration needed to halve the response being measured) in experiment [7] was no more than 10 nM; in [8] it was 100 to 2000 nM. In addition, in [1], the “IC50 (nM) of the compounds on the inhibition of p-ERK in tumor cells, A54 9” value is given as “+++ +”.

With `Cc1cc(N)c(F)c(C2Cc3nc(OC[C@@]45CCCN4C[C@H](F)C5)nc(N4CCC[C@@](C)(O)C4)c3CS2(=O)=O)c1C(F)(F)F` (stereo partly drawn) [Compound 5, 7-(3-amino-2-fluoro-5-methyl-6-(trifluoromethyl)phenyl)-2-(((2R,7AS)-2-fluorotetra hydro-1H-pyrrolazin-7a(5H)-yl)methoxy)-4-((R)-3-hydroxy-3-methylpiperidin-1-yl)-7,8-dihydro-5H-thiopyrano[4,3-d]pyrimidine 6,6-dioxide], the IC50 (on KRasG12D; in [2]; in [3]; in experiment [4]; in experiment [5]; in [6]) was no more than 10 nM throughout. The IC50 in experiment [7] was no more than 10 nM; in experiment [8] it was 100 to 2000 nM. Also, the “IC50 (nM) of the compounds on the inhibition of p-ERK in tumor cells, A54 9” value in experiment [1] is on record as “+++ +”.

For `Cc1cc(N)c(F)c(C2Cc3nc(OC[C@@]45CCCN4C[C@H](F)C5)nc(N4C[C@H]5CC[C@@H](C4)N5)c3CS2(=O)=O)c1C(F)(F)F` (stereo partly drawn) [Compound 1], the IC50 (on KRasG12D; in experiment [2]; in experiment [3]; in [4]; in experiment [5]; in experiment [6]) was no more than 10 nM throughout. For the same molecule, the IC50 in [7] was no more than 10 nM; in experiment [8] it was 100 to 2000 nM. In addition, in experiment [1], the “IC50 (nM) of the compounds on the inhibition of p-ERK in tumor cells, A54 9” value was “+++ +”.
